Results taken from the NIST ThermoML archive (doi:10.1016/j.tca.2006.08.007).

Test: excess molar enthalpy (molar enthalpy of mixing); xn = mol fraction of the nth substance listed
Conditions: 101 kPa, Liquid, Isoperibol calorimetry

CCCCCCO [hexan-1-ol] + CC#N
Conditions | excess molar enthalpy [kcal/mol]
288.15 K, x1 = 0.0402 | 0.105
288.15 K, x1 = 0.0809 | 0.188
288.15 K, x1 = 0.1219 | 0.2555
288.15 K, x1 = 0.1629 | 0.3074
288.15 K, x1 = 0.2038 | 0.3499
288.15 K, x1 = 0.2445 | 0.386
288.15 K, x1 = 0.2846 | 0.4183
288.15 K, x1 = 0.3241 | 0.4434
288.15 K, x1 = 0.3628 | 0.4663
288.15 K, x1 = 0.4145 | 0.4969
288.15 K, x1 = 0.4465 | 0.5029
288.15 K, x1 = 0.4819 | 0.5
288.15 K, x1 = 0.5214 | 0.4912
288.15 K, x1 = 0.5657 | 0.4775
288.15 K, x1 = 0.6156 | 0.4565
288.15 K, x1 = 0.6722 | 0.425
288.15 K, x1 = 0.7368 | 0.3812
288.15 K, x1 = 0.8114 | 0.3083
288.15 K, x1 = 0.898 | 0.191
298.15 K, x1 = 0.0405 | 0.121
298.15 K, x1 = 0.0815 | 0.2278
298.15 K, x1 = 0.1226 | 0.3093
298.15 K, x1 = 0.1639 | 0.3812
298.15 K, x1 = 0.205 | 0.4328
298.15 K, x1 = 0.2457 | 0.4742
298.15 K, x1 = 0.286 | 0.5062
298.15 K, x1 = 0.3257 | 0.5239
298.15 K, x1 = 0.3849 | 0.5428
298.15 K, x1 = 0.4227 | 0.554
298.15 K, x1 = 0.4554 | 0.5566
298.15 K, x1 = 0.4916 | 0.5557
298.15 K, x1 = 0.5321 | 0.5492
298.15 K, x1 = 0.5774 | 0.5359
298.15 K, x1 = 0.6286 | 0.5057
298.15 K, x1 = 0.6866 | 0.4701
298.15 K, x1 = 0.753 | 0.4089
298.15 K, x1 = 0.8295 | 0.309
298.15 K, x1 = 0.9187 | 0.165
298.15 K, x1 = 0.958 | 0.0932
313.15 K, x1 = 0.0408 | 0.132
313.15 K, x1 = 0.0819 | 0.238
313.15 K, x1 = 0.1233 | 0.3184
313.15 K, x1 = 0.1648 | 0.3815
313.15 K, x1 = 0.206 | 0.4398
313.15 K, x1 = 0.247 | 0.4861
313.15 K, x1 = 0.2874 | 0.5151
313.15 K, x1 = 0.3271 | 0.5387
313.15 K, x1 = 0.3888 | 0.5705
313.15 K, x1 = 0.4178 | 0.5782
313.15 K, x1 = 0.4498 | 0.5834
313.15 K, x1 = 0.4853 | 0.5841
313.15 K, x1 = 0.5248 | 0.5772
313.15 K, x1 = 0.569 | 0.5595
313.15 K, x1 = 0.6188 | 0.5311
313.15 K, x1 = 0.6752 | 0.4883
313.15 K, x1 = 0.7395 | 0.435
313.15 K, x1 = 0.8134 | 0.3535
313.15 K, x1 = 0.8993 | 0.2239
323.15 K, x1 = 0.041 | 0.136
323.15 K, x1 = 0.0823 | 0.2452
323.15 K, x1 = 0.1239 | 0.3296
323.15 K, x1 = 0.1655 | 0.4001
323.15 K, x1 = 0.2069 | 0.4541
323.15 K, x1 = 0.2479 | 0.505
323.15 K, x1 = 0.2884 | 0.5461
323.15 K, x1 = 0.3282 | 0.575
323.15 K, x1 = 0.39 | 0.626
323.15 K, x1 = 0.419 | 0.6384
323.15 K, x1 = 0.451 | 0.6417
323.15 K, x1 = 0.4865 | 0.6353
323.15 K, x1 = 0.526 | 0.6231
323.15 K, x1 = 0.5702 | 0.6001
323.15 K, x1 = 0.6199 | 0.5698
323.15 K, x1 = 0.6762 | 0.5206
323.15 K, x1 = 0.7404 | 0.4529
323.15 K, x1 = 0.8142 | 0.3561
323.15 K, x1 = 0.8997 | 0.223
